For this test, the system named is primary rat mixed cortical cells. As to the kind of experiment: In vitro myelination assay (MBP positive myelin strands, fold myelin pixels above background). The test is classed as cell-based. The settings on record: Rattus norvegicus; for fold induction at 1 µM: 1.0 μM compound; for fold induction at 10 µM: 10.0 μM compound. In outline: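 P1 rat mixed cortical cultures (neurons, OPCs, oligodendrocytes, astrocytes, microglia) grown 14 days at 37 °C with compound, half-medium refreshed with compound on days 6 and 10. Fixed cells stained for MBP; MBP-positive myelin strand pixels per well quantified by automated imaging, reported as fold over no-compound baseline at 1.0 and 10.0 μM.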

Where [1] appears, read: relative to baseline of no added compound, read-out: Fold myelin pixels above background.
Setting [2] is: read-out: Fold myelin pixels above background relative to baseline of no added compound.
Where [3] appears, read: relative to baseline of no added compound, read-out: Fold myelin pixels above background, 1.0 μM.
Where [4] appears, read: relative to baseline of no added compound, read-out: Fold myelin pixels above background, 10.0 μM.

Molecules are shown by their SMILES. Where two headings read alike, the source gives them in different places.

In the case of `Cc1cc(Nc2ncn(-c3cccc(C(F)(F)F)c3)n2)cc(N2CC(N3CCOCC3)C2)c1` [Compound 651, N-[3-methyl-5-(3-morpholinoazetidin-1-yl)phenyl]-1-[3-(trifluoromethyl)phenyl]-1,2,4-triazol-3-amine], under setting [1], the fold induction at 1 µM lay in the range of 10 to 100 and the fold induction at 10 µM was 1 to 10.
The corresponding values for `Cc1cc(Nc2ncn(-c3ccccc3)n2)cc(N2CCN(c3ccccc3F)CC2)c1` [Compound 455, N-[3-[4-(2-fluorophenyl)piperazin-1-yl]-5-methyl-phenyl]-1-phenyl-1,2,4-triazol-3-amine] are ≤ 1 and 10 to 100.
For `Cc1cc(Nc2ncn(-c3cc(F)cc(F)c3)n2)cc(N2CC[C@H](N3CCCC3)C2)c1` [Compound 986, 1-(3,5-difluorophenyl)-N-[3-methyl-5-[(3S)-3-pyrrolidin-1-ylpyrrolidin-1-yl]phenyl]-1,2,4-triazol-3-amine], under setting [2], the fold induction at 1 µM was in the range of 1 to 10 and the fold induction at 10 µM is ≤ 1.
For the compound `CCCc1cc(Nc2ncn(-c3cc(F)cc(F)c3)n2)cc(N2CCN(C3COC3)CC2)c1` [Compound 396, 1-(3,5-difluorophenyl)-N-[3-[4-(oxetan-3-yl)piperazin-1-yl]-5-propyl-phenyl]-1,2,4-triazol-3-amine], under setting [1], the fold induction at 1 µM was in the range of 10 to 100 and the fold induction at 10 µM was in the range of 10 to 100.
For `CCOC(=O)C1CCN(c2cc(C)cc(Nc3ncn(-c4cc(F)cc(F)c4)n3)n2)CC1` [Compound 565, ethyl 1-[6-[[1-(3,5-difluorophenyl)-1,2,4-triazol-3-yl]amino]-4-methyl-2-pyridyl]piperidine-4-carboxylate], under setting [1], the fold induction at 1 µM was ≤ 1 and the fold induction at 10 µM was ≤ 1.
Regarding `Cc1cc(Nc2ncn(-c3ccccc3)n2)cc(C2(F)CCN(C3COC3)C2)c1` (stereo not drawn) [Compound 18, N-[3-[3-fluoro-1-(oxetan-3-yl)pyrrolidin-3-yl]-5-methyl-phenyl]-1-phenyl-1,2,4-triazol-3-amine], the fold induction at 1 µM under setting [3] lay in the range of 1000 to 10000. For the same compound, the fold induction at 10 µM under setting [4] lay within 1 to 10.
As for `COC1CC(Nc2cc(C)cc(Nc3ncn(-c4cc(F)cc(F)c4)n3)c2)C1` (stereo not drawn) [Compound 520, N3-[1-(3,5-difluorophenyl)-1,2,4-triazol-3-yl]-N1-(3-methoxycyclobutyl)-5-methyl-benzene-1,3-diamine], under setting [1], the fold induction at 1 µM fell in the range of 100 to 1000 and the fold induction at 10 µM was ≤ 1.
On to `CC(=O)N1CCCC(Nc2cc(C)cc(Nc3ncn(-c4ccccc4)n3)c2)C1` (stereo not drawn) [Compound 115, 1-[3-[3-methyl-5-[(1-phenyl-1,2,4-triazol-3-yl)amino]anilino]-1-piperidyl]ethanone], for which the fold induction at 1 µM under setting [3] is 100 to 1000. Besides, the fold induction at 10 µM under setting [4] lay in the range of 100 to 1000.
For `Cc1cc(-n2cnc(Nc3cc(C4CC4)cc(N4CCN(C5COC5)CC4)c3)n2)nc(C)n1` [Compound 129, N-[3-cyclopropyl-5-[4-(oxetan-3-yl)piperazin-1-yl]phenyl]-1-(2,6-dimethylpyrimidin-4-yl)-1,2,4-triazol-3-amine], the fold induction at 1 µM under setting [3] was ≤ 1. Moreover, the fold induction at 10 µM under setting [4] is ≤ 1.
Consider `CCc1cc(Nc2ncn(-c3cc(F)cc(F)c3)n2)cc(N2CC(N3CCOCC3)C2)c1` [Compound 173, 1-(3,5-difluorophenyl)-N-[3-ethyl-5-(3-morpholinoazetidin-1-yl)phenyl]-1,2,4-triazol-3-amine], for which the fold induction at 1 µM under setting [3] lay in the range of 100 to 1000. Also, the fold induction at 10 µM under setting [4] is 10 to 100.
In the case of `Cc1cc(Nc2ncn(-c3cnccn3)n2)cc([C@]2(C)CNC(=O)O2)c1` (single isomer, unassigned) [Compound 682], under setting [1], the fold induction at 1 µM lay in the range of 10 to 100 and the fold induction at 10 µM lay within 10 to 100.
Regarding `Cc1cc(Nc2ncn(-c3cc(F)cc(F)c3)n2)cc(N2CC(N3CC4CCC(C3)O4)C2)c1` [Compound 717, 1-(3,5-difluorophenyl)-N-[3-methyl-5-[3-(8-oxa-3-azabicyclo[3.2.1]octan-3-yl)azetidin-1-yl]phenyl]-1,2,4-triazol-3-amine], under setting [1], the fold induction at 1 µM was 1 to 10 and the fold induction at 10 µM lay within 10 to 100.
The corresponding values for `Fc1cc(Nc2ncn(-c3cccc(F)c3)n2)cc(N2CCCC2)c1` [Compound 435, 1-(3-fluorophenyl)-N-(3-fluoro-5-pyrrolidin-1-yl-phenyl)-1,2,4-triazol-3-amine] are 100 to 1000 and 100 to 1000.
Consider `Cc1cc(Nc2ncn(-c3cc(F)cc(F)c3)n2)cc(N2CCN3CCC2C3)c1` (stereo not drawn) [Compound 889, N-[3-(1,4-diazabicyclo[3.2.1]octan-4-yl)-5-methyl-phenyl]-1-(3,5-difluorophenyl)-1,2,4-triazol-3-amine], for which, under setting [2], the fold induction at 1 µM lay within 10 to 100 and the fold induction at 10 µM was ≤ 1.
The corresponding values for `Cc1cc(NCC2(C(=O)N(C)C)CCCC2)cc(Nc2ncn(-c3cc(F)cc(F)c3)n2)c1` [Compound 938, 1-[[3-[[1-(3,5-difluorophenyl)-1,2,4-triazol-3-yl]amino]-5-methyl-anilino]methyl]-N,N-dimethyl-cyclopentanecarboxamide] are 1 to 10 and ≤ 1.
Turning to `Fc1cncc(-n2cnc(Nc3cc(C4CC4)cc(N4CCN(C5COC5)CC4)c3)n2)c1` [Compound 339, N-[3-cyclopropyl-5-[4-(oxetan-3-yl)piperazin-1-yl]phenyl]-1-(5-fluoro-3-pyridyl)-1,2,4-triazol-3-amine], the fold induction at 1 µM under setting [3] fell in the range of 100 to 1000. The fold induction at 10 µM under setting [4] lay in the range of 10 to 100.
`Cc1cc(Nc2ncn(-c3cc(F)cc(F)c3)n2)cc(N2CCC(N3CCOC(C)C3)CC2)c1` (stereo not drawn) [Compound 1023, 1-(3,5-difluorophenyl)-N-[3-methyl-5-[4-(2-methylmorpholin-4-yl)-1-piperidyl]phenyl]-1,2,4-triazol-3-amine]: under setting [2], the fold induction at 1 µM lay in the range of 1 to 10 and the fold induction at 10 µM lay within 10 to 100.
With `Cc1cc(Nc2ncn(-c3cc(F)cc(F)c3)n2)c(F)c(N2CC3(COC3)C2)c1` [Compound 743, 1-(3,5-difluorophenyl)-N-[2-fluoro-5-methyl-3-(2-oxa-6-azaspiro[3.3]heptan-6-yl)phenyl]-1,2,4-triazol-3-amine], under setting [1], the fold induction at 1 µM lay within 1 to 10 and the fold induction at 10 µM was in the range of 10 to 100.
Regarding `CCN(CC)CCN1CCN(c2cc(C)cc(Nc3ncn(-c4cc(F)cc(F)c4)n3)c2)CC1` [Compound 987, N-[3-[4-[2-(diethylamino)ethyl]piperazin-1-yl]-5-methyl-phenyl]-1-(3,5-difluorophenyl)-1,2,4-triazol-3-amine], under setting [2], the fold induction at 1 µM lay within 1 to 10 and the fold induction at 10 µM is ≤ 1.
Consider `Cc1cc(Nc2ncn(-c3cc(F)cc(Cl)c3)n2)cc(N2CCN(C)CC2)c1` [Compound 220, 1-(3-chloro-5-fluoro-phenyl)-N-[3-methyl-5-(4-methylpiperazin-1-yl)phenyl]-1,2,4-triazol-3-amine], for which the fold induction at 1 µM under setting [3] was in the range of 10 to 100. Further, the fold induction at 10 µM under setting [4] was ≤ 1.
On to `COCCC1CCN(c2cc(C)cc(Nc3ncn(-c4cc(F)cc(F)c4)n3)n2)CC1` [Compound 855, N-[1-(3,5-difluorophenyl)-1,2,4-triazol-3-yl]-6-[4-(2-methoxyethyl)-1-piperidyl]4-methyl-pyridin-2-amine], for which, under setting [2], the fold induction at 1 µM fell in the range of 1 to 10 and the fold induction at 10 µM was in the range of 1 to 10.
On to `Cc1cc(Nc2ncn(-c3cc(F)cc(F)c3)n2)cc(NC2(C(=O)N(C)C)CCC2)c1` [Compound 887, 1-[3-[[1-(3,5-difluorophenyl)-1,2,4-triazol-3-yl]amino]-5-methyl-anilino]-N,N-dimethyl-cyclobutanecarboxamide], for which, under setting [2], the fold induction at 1 µM was 10 to 100 and the fold induction at 10 µM was in the range of 10 to 100.
For the compound `CCC(CN1CCOCC1)Nc1cc(C)cc(Nc2ncn(-c3cc(F)cc(F)c3)n2)c1` (stereo not drawn) [Compound 960, N3-[1-(3,5-difluorophenyl)-1,2,4-triazol-3-yl]-5-methyl-N1-[1-(morpholinomethyl)propyl]benzene-1,3-diamine], under setting [2], the fold induction at 1 µM fell in the range of 1 to 10 and the fold induction at 10 µM was ≤ 1.
Turning to `COCC1CN(c2cc(C)cc(Nc3ncn(-c4cc(F)cc(F)c4)n3)c2)C1` [Compound 116, 1-(3,5-difluorophenyl)-N-[3-[3-(methoxymethyl)azetidin-1-yl]-5-methyl-phenyl]-1,2,4-triazol-3-amine], under setting [3], the fold induction at 1 µM is ≤ 1. For the same compound, the fold induction at 10 µM under setting [4] was ≤ 1.
As for `Cc1cc(Nc2ncn(-c3cnccn3)n2)c(F)c(OC2CCOC2)c1` (stereo not drawn) [Compound 952, N-(2-fluoro-5-methyl-3-tetrahydrofuran-3-yloxy-phenyl)-1-pyrazin-2-yl-1,2,4-triazol-3-amine], under setting [2], the fold induction at 1 µM was 1 to 10 and the fold induction at 10 µM was 1 to 10.
Take `Cc1cc(Nc2ncn(-c3cc(F)cc(F)c3)n2)cc(N2CCN3CCC[C@@H]3C2)c1` [Compound 128, N-[3-[(8aR)-3,4,6,7,8,8a-hexahydro-1H-pyrrolo[1,2-a]pyrazin-2-yl]-5-methyl-phenyl]-1-(3,5-difluorophenyl)-1,2,4-triazol-3-amine]: the fold induction at 1 µM under setting [3] is 10 to 100. For the same compound, under setting [4], the fold induction at 10 µM lay in the range of 10 to 100.
Regarding `Cc1cc(Nc2ncn(-c3cc(F)cc(F)c3)n2)cc(NC2CC(N3CCOCC3)C2)c1` (stereo not drawn) [Compound 797, N3-[1-(3,5-difluorophenyl)-1,2,4-triazol-3-yl]-5-methyl-N1-(3-morpholinocyclobutyl)benzene-1,3-diamine], under setting [2], the fold induction at 1 µM is 1 to 10 and the fold induction at 10 µM was ≤ 1.

The record behind these values is US10766869B2, “Triazoles for the treatment of demyelinating dieases” (Vertex Pharmaceuticals Incorporated, priority 2015, dated 2020).
